{"source": "PubChem BioAssay AID1259409", "about": "(Chemical Carcinogenesis Research Information System (CCRIS), 2018)", "origin": "cited, not measured here", "test_system": "rodent chemically induced tumor inhibition, incidence and multiplicity", "experiment": "CCRIS tumor inhibitor studies", "conditions": "Carcinogen: N-BUTYL-N-(4-HYDROXYBUTYL)NITROSAMINE, 3817-11-6, Route [Inhibitor]: ORAL, Species: MOUSE, Strain/Sex: BDF/MALE, Target Tissue: Type of Lesion: URINARY BLADDER: TRANSITIONAL CELL CARCINOMA, Dose [Carcinogen]: 7.5 MG 1/WK FOR 8 WK, Promoter: NONE USED", "data": [{"molecule": "CC1=C(/C=C/C(C)=C/C=C/C(C)=C\\C(=O)Nc2nn[nH]n2)C(C)(C)CCC1", "values": [{"measurement": "tumour outcome (control, treated, inhibition, significance)", "setting": "Dose [Inhibitor]: 1.5 MMOL/KG DIET DAILY FOR 159 D STARTING 1 WK AFTER THE FINAL CARCINOGEN DOSE (STUDY DURATION: 216 D)", "result": "29/98 (30%), 26/100 (26%), 13%, not significant"}, {"measurement": "tumour outcome (control, treated, inhibition, significance)", "setting": "Dose [Inhibitor]: 1.5 MMOL/KG/D IN DIET FOR 159 D STARTING 1 WK POST CARCINOGEN TREATMENT (STUDY DURATION: 216 D)", "result": "29/98 (30%), 26/100 (26%), 13%, not significant"}]}]}
